# Laboratory results published in patent publication US11427569B2, “Benzoimidazole indolyl methanes and methods of using them to inhibit PCKS9 and PCKS9-mediated ailments” (Wisconsin Alumni Research Foundation, priority 2019, dated 2022).
# Values joined by “and” are separate entries in the source; they are usually repeats but may differ in a detail not shown here. Identical values can stand only once.
# Target: T1, PCSK9 (Homo sapiens, UniProt Q8NBP7)
# T1 construct: endogenous in cells; host or cells: HepG2 (ATCC HB-8065)
# T1 sequence (Q8NBP7 153-692): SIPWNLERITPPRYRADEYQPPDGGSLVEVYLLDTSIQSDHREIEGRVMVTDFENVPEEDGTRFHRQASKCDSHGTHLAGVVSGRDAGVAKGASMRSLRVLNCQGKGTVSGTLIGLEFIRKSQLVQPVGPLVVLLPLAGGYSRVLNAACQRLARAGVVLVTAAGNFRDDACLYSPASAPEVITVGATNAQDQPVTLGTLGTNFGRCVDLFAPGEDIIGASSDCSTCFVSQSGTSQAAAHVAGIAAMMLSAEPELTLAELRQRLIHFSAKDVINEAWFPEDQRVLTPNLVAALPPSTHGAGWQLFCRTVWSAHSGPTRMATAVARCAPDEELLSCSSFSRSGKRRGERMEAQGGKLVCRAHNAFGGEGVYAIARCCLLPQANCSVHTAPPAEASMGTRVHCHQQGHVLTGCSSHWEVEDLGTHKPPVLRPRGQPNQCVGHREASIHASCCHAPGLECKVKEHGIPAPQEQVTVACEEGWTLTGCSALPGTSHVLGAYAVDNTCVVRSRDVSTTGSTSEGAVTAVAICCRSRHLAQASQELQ
# Experiment: ELISA of secreted (extracellular, medium) PCSK9 in HepG2 cells
# Format: cell-based
# Conditions: for Activity at 1 μM (% of remaining PCSK9): 1 μM compound; for Activity at 1 μM (% of remaining PCSK9) / Activity at 10 μM (% of remaining PCSK9): HepG2 cells, DMSO = 100%; for Activity at 10 μM (% of remaining PCSK9): 10 μM compound; for IC50: dose-response curves, extracellular PCSK9, cultured HepG2 cells (FIG. 4)
# Description: The human hepatoma cell line, HepG2, was cultured and maintained in low glucose Dulbecco's modified Eagle's medium (DMEM) supplemented with 10% fetal bovine serum (FBS) and 1% penicillin, streptomycin solution. (ATCC HB-8065, American Type Culture Collection, Manassas, Va.) The medium was further supplemented with 1% each of nonessential amino acids (NEAA), sodium pyruvate and L-glutamine.
# Freshly cultured HepG2 cells were harvested from vacuum gas plasma-treated T75 cell culture flasks and plated onto vacuum gas plasma-treated clear 12 or 96 well plates (Fisher Scientific, Waltham, Mass. catalog nos. 353072 and 353043, respectively) at 70% confluent in 1000 μl/well or 200 μl/well of growth medium respectively. Cell plates were incubated overnight at 37° C. and 5% CO2 prior to compound treatment. For screening experiments, compounds at an initial concentration of 20 mM in 100% DMSO were diluted to different concentrations in growth medium.
# For the generation of dose-response curves, compounds at an initial concentration of 20 mM in 100% DMSO were diluted to 30 μM in growth medium. The 30 μM solutions were then serially diluted 10-fold to achieve final concentration of 30 μM, 3 μM, 0.3 μM, 0.03 μM, and 0.003 μM in assay medium. Growth medium was aspirated from the plated cells and medium containing compound was added to the appropriate well. Cells were allowed to incubate for 24 h or 48 h at 37° C. and 5% CO2. Medium was collected from cells and centrifuged at 14,000 rpm for five min. The upper 50% of spun medium was collected and frozen for later analysis. The remaining cells were washed twice with 1000 μl/well or 200 μl/well cold phosphate buffered saline (PBS) at pH 7.4 and placed on ice. Cells were treated with 100 μl/well or 60 μl/well of lysis buffer comprised of 50 mM Tris, pH 8; 1% NP-40; 150 mM NaCl; 1 mM EDTA (purchased from Cell Signaling Technology, Inc., Danvers, Mass., catalog no. 9803) containing 1 mM phenylmethane sulfonyl fluoride (PMSF) and Roche protease inhibitor cocktail (available from Sigma-Aldrich, St. Louis, Mo.). Cells were allowed to incubate in lysis buffer on ice for 30 min. Cells were then collected and frozen overnight. Cells were centrifuged the next day at 14,000 rpm for 15 min. The supernatant was collected and analyzed for total protein or PCSK9 concentration.
# Inhibition of secreted PCSK9 was measured in human hepatocellular carcinoma (HepG2) cells using a PCSK9 Quantikine®-brand ELISA kit purchased from R&D Systems, a wholly owned subsidiary of Bio-Techne Corporation, Minneapolis, Minn. (“Human Proprotein Convertase 9/PCSK9 Quantikine® ELISA Kit,” catalog #DPC900). The protocol provided in the kit was followed. Briefly, PCSK9 standards were prepared according to the instructions provided with the kit at final concentrations of 40 ng/mL, 20 ng/mL, 10 ng/mL, 5 ng/mL, 2.5 ng/mL, 1.25 ng/mL, 0.625 ng/mL and 0 ng/mL. The ELISA was conducted with the provided capture antibody-coated 96-well plate. Assay diluent was added to all relevant wells at a volume of 100 μL. 50 μL of sample (medium or cell lysate) or PCSK9 standard (in duplicate) was then added to the appropriate well. The plate was allowed to incubate for 2 h at room temperature. All wells were aspirated and washed four times with 300 μl of wash buffer. After washing, 200 μL of anti-PCSK9-HRP conjugate was added to all wells and the plate was allowed to incubate at room temperature for 2 h. After incubation all wells were aspirated and washed again four times with 300 μL of washing buffer.
# After washing was completed, 200 μL of freshly prepared colorimetric reagent was added to all wells and the plate was incubated at room temperature in the dark for 30 min. After this final incubation a stop solution of 1N sulfuric acid was added to all wells, at which point absorbance was measured using a Tecan Infinite M1000 microplate reader at a wavelength of 450 nm (background absorbance was corrected by subtracting the absorbance measured at 540 nm). […]
SMILES,Activity at 1 μM (% of remaining PCSK9),Activity at 10 μM (% of remaining PCSK9),IC50
Cn1c(Cc2c[nH]c3c(F)cccc23)nc2ccc(F)cc21 [HX184],34%,10%,
O=C(c1nc2ccc(F)cc2[nH]1)c1c[nH]c2c(F)cccc12 [HX235],28%,26%,0.5 nM
Fc1ccc2nc(Cc3c[nH]c4c(F)cccc34)n(CCc3ccccc3)c2c1 [HX179],62%,48%,
O=C(c1nc2ccccc2[nH]1)c1c[nH]c2ccccc12 [HX262],30%,20%,
CC(C)Cn1c(Cc2c[nH]c3c(F)cccc23)nc2ccc(F)cc21 [HX185],65%,42%,
CC(C)(C)Cn1c(Cc2c[nH]c3c(F)cccc23)nc2ccc(F)cc21 [HX186],84%,73%,
Fc1ccc2nc(Cc3c[nH]c4c(F)cccc34)n(Cc3ccncc3)c2c1 [HX181],60%,33%,
[2H]C([2H])(c1nc2cc(F)ccc2[nH]1)c1c[nH]c2c(F)cccc12 [HX212],45%,25%,
Fc1ccc2nc(Cc3c[nH]c4c(F)cccc34)n(Cc3ccccc3)c2c1 [HX178],75%,31%,
Fc1ccc2[nH]c(Cc3c[nH]c4c(F)cccc34)cc2c1 [compound 9577],59% and 50%,17% and 13%,44 nM
OCCn1c(Cc2c[nH]c3c(F)cccc23)nc2ccc(F)cc21 [HX183],70%,27%,
O=C(c1nc2ccccc2[nH]1)c1c[nH]c2c(F)cccc12 [MF025],27%,21%,
Fc1ccc2[nH]c(Cc3c[nH]c4c(F)cccc34)nc2c1 [HX81],46% and 40%,,
O=C(c1cc2ccccc2[nH]1)c1c[nH]c2ccccc12 [HX257],25%,13%,
O=C(c1cc2ccccc2[nH]1)c1c[nH]c2c(F)cccc12 [HX258],20%,14%,
O=C(c1cc2cc(F)ccc2[nH]1)c1c[nH]c2c(F)cccc12 [HX240],25%,15%,13 nM
Cn1c(C(=O)c2c[nH]c3c(F)cccc23)nc2ccc(F)cc21 [HX261],21%,20%,
Fc1ccc2nc(Cc3c[nH]c4c(F)cccc34)n(Cc3cccnc3)c2c1 [HX182],86%,89%,
O=C(c1cc2cc(F)ccc2[nH]1)c1c[nH]c2ccccc12 [HX259],28%,13%,
"COc1ccc2cc3[n+](cc2c1OC)CCc1cc2c(cc1-3)OCO2 [BBR, berberine, reference compound]",88% and 69%,54% and 51%,
